# In ChEMBL document CHEMBL1201862, “PubChem BioAssay data set” (2004):
# The source made the active and inactive calls.
# What was measured:
# [1] = molecular target: T1, Epstein-Barr nuclear antigen 1 (Epstein-Barr virus (strain B95-8) (HHV-4) (Human herpesvirus 4), UniProt P03211); experiment: EBNA-1 inhibitors, dose response, biochemical, fluorescence polarization, 1536-well (AID 2381); set-up: species or system human gammaherpesvirus 4;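 also: fluorescence polarization of a Cy5 DNA probe bound by EBNA-1 protein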
# T1 sequence (P03211 whole entry): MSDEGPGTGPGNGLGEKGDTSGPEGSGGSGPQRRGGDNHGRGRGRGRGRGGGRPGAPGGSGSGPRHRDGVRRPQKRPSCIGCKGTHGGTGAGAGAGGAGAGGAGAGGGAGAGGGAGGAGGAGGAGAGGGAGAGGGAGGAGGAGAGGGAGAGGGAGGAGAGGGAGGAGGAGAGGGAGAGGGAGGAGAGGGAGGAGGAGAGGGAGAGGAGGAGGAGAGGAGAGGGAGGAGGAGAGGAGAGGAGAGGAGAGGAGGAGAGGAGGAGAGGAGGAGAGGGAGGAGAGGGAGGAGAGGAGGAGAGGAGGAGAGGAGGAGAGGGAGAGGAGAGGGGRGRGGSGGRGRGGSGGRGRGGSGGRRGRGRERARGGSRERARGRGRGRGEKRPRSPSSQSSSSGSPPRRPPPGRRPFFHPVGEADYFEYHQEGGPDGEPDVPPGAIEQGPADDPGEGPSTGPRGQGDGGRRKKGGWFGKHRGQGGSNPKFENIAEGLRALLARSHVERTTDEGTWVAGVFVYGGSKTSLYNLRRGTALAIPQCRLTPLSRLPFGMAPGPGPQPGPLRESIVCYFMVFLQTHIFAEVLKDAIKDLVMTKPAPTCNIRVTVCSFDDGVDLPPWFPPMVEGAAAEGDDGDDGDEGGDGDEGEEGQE
# [2] = molecular target: T2, Lytic switch protein BZLF1 (Epstein-Barr virus (strain B95-8) (HHV-4) (Human herpesvirus 4), UniProt P03206); experiment: EBV ZTA inhibitors, dose response, counter-screen for EBNA-1 inhibitor project, biochemical, fluorescence polarization, Epstein-Barr virus, 1536-well (AID 2377); set-up: species or system human gammaherpesvirus 4;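 also: fluorescence polarization of Cy5-labelled ZRE DNA probe bound by purified Zta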
# T2 sequence (P03206 whole entry): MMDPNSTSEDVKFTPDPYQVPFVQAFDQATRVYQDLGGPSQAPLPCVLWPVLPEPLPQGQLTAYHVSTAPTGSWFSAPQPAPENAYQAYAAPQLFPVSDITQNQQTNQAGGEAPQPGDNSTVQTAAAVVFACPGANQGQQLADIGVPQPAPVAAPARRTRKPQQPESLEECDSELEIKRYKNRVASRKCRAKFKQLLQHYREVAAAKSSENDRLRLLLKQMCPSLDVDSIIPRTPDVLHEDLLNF
# [3] = molecular target: DNA dC->dU-editing enzyme APOBEC-3G (Homo sapiens, UniProt Q9HC16); experiment: Dose Response confirmation of small molecule APOBEC3G DNA Deaminase Inhibitors via a fluorescence-based single-stranded DNA deaminase assay. [Related pubchem assays (depositor defined):AID493012, AID493028]; type: functional
# DNA dC->dU-editing enzyme APOBEC-3G, sequence (Q9HC16 whole entry): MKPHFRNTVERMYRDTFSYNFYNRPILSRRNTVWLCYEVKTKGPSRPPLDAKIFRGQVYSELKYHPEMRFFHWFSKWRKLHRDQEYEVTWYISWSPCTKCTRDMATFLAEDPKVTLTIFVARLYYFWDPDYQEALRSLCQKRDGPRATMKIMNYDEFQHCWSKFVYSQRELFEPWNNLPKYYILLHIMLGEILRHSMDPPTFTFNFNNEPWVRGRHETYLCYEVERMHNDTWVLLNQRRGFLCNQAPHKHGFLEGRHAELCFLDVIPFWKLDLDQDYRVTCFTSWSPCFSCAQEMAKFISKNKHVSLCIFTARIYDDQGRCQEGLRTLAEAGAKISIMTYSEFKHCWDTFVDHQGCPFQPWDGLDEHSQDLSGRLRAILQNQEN
# [4] = molecular target: T3, Mannose-6-phosphate isomerase (Homo sapiens, UniProt P34949); experiment: inhibitors of human PMI, primary screen, biochemical, fluorescence intensity, coupled assay (AID 1209)
# T3 sequence (P34949 whole entry): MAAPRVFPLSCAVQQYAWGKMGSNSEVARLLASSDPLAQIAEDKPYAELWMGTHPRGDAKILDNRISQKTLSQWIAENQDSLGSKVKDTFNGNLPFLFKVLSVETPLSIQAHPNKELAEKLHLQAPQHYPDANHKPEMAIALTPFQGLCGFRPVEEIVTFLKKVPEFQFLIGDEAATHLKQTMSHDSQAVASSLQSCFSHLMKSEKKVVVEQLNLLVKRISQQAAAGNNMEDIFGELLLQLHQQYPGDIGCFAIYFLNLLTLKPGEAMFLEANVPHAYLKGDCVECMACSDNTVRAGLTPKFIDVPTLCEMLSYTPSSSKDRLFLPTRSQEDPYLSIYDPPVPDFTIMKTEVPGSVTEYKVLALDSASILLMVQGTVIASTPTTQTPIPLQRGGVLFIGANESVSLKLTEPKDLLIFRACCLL
# Leucine aminopeptidase = molecular target: T4, Leucine aminopeptidase (Plasmodium falciparum 3D7, UniProt Q8IL11); experiment: P. falciparum M17LAP inhibitors, primary screen, biochemical, fluorogenic H-Leu-NHMec substrate, 1536-well (AID 1619); type: functional
# T4 sequence (Q8IL11 whole entry): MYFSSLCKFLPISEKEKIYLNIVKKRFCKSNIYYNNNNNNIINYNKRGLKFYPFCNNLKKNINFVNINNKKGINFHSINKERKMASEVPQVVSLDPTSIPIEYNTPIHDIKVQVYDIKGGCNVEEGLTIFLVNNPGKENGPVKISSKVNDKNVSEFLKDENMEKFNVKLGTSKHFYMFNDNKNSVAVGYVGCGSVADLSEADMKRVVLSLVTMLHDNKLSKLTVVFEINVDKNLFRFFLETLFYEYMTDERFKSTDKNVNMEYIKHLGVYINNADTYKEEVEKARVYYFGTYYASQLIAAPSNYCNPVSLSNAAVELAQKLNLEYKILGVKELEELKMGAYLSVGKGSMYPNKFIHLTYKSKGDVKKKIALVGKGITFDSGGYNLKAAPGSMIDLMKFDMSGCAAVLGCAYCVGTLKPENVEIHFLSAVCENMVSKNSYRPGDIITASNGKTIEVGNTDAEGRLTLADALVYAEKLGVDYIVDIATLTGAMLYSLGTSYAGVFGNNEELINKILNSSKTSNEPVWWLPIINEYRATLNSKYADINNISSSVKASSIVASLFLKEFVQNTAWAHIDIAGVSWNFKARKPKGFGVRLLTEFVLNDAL
# [5] = molecular target: G-protein coupled receptor 55 (Homo sapiens, UniProt Q9Y2T6); experiment: GPR55 agonists via beta-arrestin recruitment, primary screen, imaging, U2OS cells, beta-arrestin-GFP redistribution (AID 1961); type: functional
# G-protein coupled receptor 55, sequence (Q9Y2T6 whole entry): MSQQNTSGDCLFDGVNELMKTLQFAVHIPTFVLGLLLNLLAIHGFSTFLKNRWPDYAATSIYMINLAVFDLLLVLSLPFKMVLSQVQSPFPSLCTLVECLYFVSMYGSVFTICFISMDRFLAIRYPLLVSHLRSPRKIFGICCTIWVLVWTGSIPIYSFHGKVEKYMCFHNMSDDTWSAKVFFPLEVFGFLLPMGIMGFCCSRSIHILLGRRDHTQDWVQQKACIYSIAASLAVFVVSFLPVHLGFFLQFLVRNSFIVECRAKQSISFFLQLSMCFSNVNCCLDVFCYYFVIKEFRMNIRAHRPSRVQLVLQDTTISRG
# cells [6] = type: functional, cell-based
# cells [7] = type: functional, cell-based; remark: listed apart in the source
# Mucolipin-3 = molecular target: T5, Mucolipin-3 (Homo sapiens, UniProt Q8TDD5); experiment: Dose response cell-based high-throughput screening assay for agonists of the transient receptor potential channel ML3 (TRPML3). [Related pubchem assays: 1526, 1424, 1448 ]; type: functional
# T5 sequence (Q8TDD5 whole entry): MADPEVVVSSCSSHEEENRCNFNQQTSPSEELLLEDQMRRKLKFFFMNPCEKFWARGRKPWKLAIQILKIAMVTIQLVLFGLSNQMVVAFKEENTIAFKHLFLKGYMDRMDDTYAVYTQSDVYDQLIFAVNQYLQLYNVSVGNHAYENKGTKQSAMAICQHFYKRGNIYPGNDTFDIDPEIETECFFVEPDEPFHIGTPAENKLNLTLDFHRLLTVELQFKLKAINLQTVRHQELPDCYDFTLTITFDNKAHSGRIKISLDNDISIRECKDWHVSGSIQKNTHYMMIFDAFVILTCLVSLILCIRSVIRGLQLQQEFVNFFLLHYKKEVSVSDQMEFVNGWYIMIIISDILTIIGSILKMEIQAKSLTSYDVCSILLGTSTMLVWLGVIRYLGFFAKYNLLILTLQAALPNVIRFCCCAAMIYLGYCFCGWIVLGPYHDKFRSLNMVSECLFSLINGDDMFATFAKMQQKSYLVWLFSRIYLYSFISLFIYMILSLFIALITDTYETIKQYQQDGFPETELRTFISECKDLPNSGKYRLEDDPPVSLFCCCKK
# Ion channel NompC = Ion channel NompC (Danio rerio, UniProt Q7T1G6); experiment: Fluorescence counterscreen assay for TRPML3 agonists: dose response cell-based high-throughput screening assay to identify agonists of the transient receptor potential channel N1 (TRPN1). [Related pubchem assays: 1526, 1424, 1448 ]; type: functional
# Ion channel NompC, sequence (Q7T1G6 whole entry): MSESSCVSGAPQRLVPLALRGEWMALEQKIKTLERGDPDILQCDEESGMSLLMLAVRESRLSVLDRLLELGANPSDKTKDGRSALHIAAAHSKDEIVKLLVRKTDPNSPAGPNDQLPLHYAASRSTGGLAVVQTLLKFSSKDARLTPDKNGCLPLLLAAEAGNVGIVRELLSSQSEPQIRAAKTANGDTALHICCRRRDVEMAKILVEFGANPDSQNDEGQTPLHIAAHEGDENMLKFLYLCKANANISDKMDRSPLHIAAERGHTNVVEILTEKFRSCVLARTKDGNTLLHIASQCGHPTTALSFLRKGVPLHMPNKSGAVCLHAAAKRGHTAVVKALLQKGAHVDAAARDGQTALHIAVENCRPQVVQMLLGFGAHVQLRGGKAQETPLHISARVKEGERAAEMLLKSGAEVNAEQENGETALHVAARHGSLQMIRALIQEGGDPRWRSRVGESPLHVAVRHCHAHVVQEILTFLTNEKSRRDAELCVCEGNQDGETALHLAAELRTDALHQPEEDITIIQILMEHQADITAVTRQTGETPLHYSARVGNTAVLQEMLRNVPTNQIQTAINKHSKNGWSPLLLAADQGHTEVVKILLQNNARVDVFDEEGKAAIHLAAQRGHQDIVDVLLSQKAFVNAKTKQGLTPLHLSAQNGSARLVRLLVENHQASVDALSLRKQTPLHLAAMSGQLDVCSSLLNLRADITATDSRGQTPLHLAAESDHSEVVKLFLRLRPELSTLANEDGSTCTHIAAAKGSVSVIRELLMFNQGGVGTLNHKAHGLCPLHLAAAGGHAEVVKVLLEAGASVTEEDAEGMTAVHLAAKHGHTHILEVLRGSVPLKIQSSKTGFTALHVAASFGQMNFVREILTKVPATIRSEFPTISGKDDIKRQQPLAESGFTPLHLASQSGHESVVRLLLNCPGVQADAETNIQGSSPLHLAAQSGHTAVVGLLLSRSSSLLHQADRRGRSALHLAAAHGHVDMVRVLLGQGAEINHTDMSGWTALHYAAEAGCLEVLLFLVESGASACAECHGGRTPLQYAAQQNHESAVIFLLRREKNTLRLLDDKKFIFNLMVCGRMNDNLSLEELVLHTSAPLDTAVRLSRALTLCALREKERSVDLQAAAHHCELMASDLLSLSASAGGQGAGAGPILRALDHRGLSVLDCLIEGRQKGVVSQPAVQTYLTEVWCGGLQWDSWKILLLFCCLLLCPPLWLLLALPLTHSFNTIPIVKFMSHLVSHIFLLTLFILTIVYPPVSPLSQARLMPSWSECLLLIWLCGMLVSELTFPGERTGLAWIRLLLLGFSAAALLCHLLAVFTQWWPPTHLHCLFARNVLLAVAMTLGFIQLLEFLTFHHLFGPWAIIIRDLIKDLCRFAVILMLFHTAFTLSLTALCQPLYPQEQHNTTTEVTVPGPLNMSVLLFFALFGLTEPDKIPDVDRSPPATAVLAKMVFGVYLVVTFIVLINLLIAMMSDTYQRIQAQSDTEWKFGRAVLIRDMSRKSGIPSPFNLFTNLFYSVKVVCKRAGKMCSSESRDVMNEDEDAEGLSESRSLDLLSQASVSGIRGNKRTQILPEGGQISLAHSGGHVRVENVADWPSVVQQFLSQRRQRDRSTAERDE
# [8] = molecular target: DNA dC->dU-editing enzyme APOBEC-3A (Homo sapiens, UniProt P31941); experiment: APOBEC3A DNA deaminase inhibitors, dose response, biochemical (AID 504722); type: functional
# DNA dC->dU-editing enzyme APOBEC-3A, sequence (P31941 whole entry): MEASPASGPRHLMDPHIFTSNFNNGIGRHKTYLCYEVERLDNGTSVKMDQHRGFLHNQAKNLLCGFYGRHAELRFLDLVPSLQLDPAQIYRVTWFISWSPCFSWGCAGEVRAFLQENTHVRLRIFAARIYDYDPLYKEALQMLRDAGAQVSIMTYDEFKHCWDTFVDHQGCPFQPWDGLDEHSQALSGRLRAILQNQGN
# [9] = molecular target: Eukaryotic translation initiation factor 4E (Mus musculus, UniProt P63073); experiment: eIF4E–eIF4G protein interaction inhibitors, dose response, biochemical, TR-FRET (AID 855); type: functional;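 also: potency for disrupting eIF4E binding to eIF4GI seen as loss of FRET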
# Eukaryotic translation initiation factor 4E, sequence (P63073 whole entry): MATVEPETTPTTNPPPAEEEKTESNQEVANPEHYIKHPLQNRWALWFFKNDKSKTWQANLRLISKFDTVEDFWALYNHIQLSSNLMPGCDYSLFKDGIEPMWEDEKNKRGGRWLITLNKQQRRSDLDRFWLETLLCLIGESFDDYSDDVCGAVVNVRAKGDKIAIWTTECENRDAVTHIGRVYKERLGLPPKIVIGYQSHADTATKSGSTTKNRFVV
# Estrogen receptor beta = Estrogen receptor beta (Homo sapiens, UniProt Q92731); experiment: ERβ–SRC-3 coactivator interaction inhibitors, confirmation, orthogonal assay, biochemical, ELISA, streptavidin-HRP readout (AID 1060)
# Estrogen receptor beta, sequence (Q92731 whole entry): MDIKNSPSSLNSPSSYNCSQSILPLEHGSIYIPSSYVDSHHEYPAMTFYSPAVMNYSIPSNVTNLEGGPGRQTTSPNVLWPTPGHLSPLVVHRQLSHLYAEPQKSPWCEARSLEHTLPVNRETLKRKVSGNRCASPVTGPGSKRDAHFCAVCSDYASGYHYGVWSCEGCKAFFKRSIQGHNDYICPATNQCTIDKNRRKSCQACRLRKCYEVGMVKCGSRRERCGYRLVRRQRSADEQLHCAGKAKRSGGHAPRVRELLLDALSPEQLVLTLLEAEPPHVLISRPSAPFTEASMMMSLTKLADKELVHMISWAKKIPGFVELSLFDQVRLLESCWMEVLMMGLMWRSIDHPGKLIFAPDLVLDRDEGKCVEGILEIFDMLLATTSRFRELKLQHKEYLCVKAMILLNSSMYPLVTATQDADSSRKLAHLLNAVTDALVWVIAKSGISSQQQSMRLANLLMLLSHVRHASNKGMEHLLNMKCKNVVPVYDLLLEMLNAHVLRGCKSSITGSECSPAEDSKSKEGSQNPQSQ
# [10] = molecular target: Induced myeloid leukemia cell differentiation protein Mcl-1 (Homo sapiens, UniProt Q07820); type: functional
# Induced myeloid leukemia cell differentiation protein Mcl-1, sequence (Q07820 whole entry): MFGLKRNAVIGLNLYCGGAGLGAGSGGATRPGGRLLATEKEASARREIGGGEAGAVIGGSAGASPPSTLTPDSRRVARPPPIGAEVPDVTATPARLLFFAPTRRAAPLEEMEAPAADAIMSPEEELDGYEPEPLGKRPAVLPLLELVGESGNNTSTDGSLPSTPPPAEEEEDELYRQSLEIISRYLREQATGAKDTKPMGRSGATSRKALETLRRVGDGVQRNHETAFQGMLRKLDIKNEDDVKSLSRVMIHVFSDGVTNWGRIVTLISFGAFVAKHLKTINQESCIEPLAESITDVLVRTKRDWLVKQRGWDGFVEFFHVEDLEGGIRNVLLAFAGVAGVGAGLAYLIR
# cells [11] = experiment: cells
# [12] = molecular target: FAD-linked sulfhydryl oxidase ALR (Homo sapiens, UniProt P55789); experiment: inhibitors of human ALR sulfhydryl oxidase, dose response, biochemical, H2O2 detection, luminescence, cherry-pick (AID 493248)
# FAD-linked sulfhydryl oxidase ALR, sequence (P55789 whole entry, the tested form may be a part): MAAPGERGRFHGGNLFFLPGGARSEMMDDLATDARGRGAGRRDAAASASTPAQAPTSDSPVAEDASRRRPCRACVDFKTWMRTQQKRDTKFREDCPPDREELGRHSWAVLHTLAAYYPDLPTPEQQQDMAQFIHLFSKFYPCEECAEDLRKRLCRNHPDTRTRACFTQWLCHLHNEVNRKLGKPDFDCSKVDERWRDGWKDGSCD
# [13] = molecular target: T6, RNA-binding protein pos-1 (Caenorhabditis elegans, UniProt G5EF15); experiment: inhibitors of POS-1/mex-3 RNA binding, dose response, biochemical, fluorescence polarization (AID 1964);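 also: purified POS-1 fused to maltose binding protein made in E. coli; potency of compounds blocking POS-1 binding to fluorescent RNA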
# T6 sequence (G5EF15 whole entry): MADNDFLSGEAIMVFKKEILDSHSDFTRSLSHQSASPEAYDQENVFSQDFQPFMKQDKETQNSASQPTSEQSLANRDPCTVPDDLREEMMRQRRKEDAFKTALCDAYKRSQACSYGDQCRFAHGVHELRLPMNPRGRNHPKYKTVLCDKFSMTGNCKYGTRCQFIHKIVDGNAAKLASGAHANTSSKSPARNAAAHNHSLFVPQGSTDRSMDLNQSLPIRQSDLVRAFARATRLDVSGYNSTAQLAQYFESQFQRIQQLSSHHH
# [14] = molecular target: T7, Zinc finger protein mex-5 (Caenorhabditis elegans, UniProt Q9XUB2); experiment: MEX-5/TCR-2 RNA interaction inhibitors, dose response, biochemical, C. elegans, fluorescence polarization (AID 1960)
# T7 sequence (Q9XUB2 whole entry): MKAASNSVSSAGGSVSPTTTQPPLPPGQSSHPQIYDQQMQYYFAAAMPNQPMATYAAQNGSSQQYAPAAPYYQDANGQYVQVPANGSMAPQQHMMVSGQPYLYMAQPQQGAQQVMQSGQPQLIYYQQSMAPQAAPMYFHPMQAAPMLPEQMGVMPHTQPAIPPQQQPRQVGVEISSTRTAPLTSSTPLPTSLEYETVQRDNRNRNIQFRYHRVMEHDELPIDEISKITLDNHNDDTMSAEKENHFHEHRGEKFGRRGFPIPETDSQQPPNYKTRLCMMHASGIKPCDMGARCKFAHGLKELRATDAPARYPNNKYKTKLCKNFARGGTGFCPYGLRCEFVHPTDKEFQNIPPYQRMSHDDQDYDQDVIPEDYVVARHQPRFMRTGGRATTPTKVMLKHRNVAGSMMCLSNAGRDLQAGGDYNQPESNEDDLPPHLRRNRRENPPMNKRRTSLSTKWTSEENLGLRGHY
structure (smiles),measurement,setting,value
Cc1ccc(NC(=O)CCn2c(=S)oc3ccccc32)cc1,IC50,[1],14.2 µM (not active)
same,IC50,[2],> 111 µM (not active)
COc1ccc(Cc2nnc(S)n2N)cc1OC,IC50,[3],17.8 µM (active)
same,IC50,[4],31.9 µM (active)
Cc1nc(NS(=O)(=O)c2ccccc2)sc1C(=O)NN,IC50,Leucine aminopeptidase,114 µM (active)
Nc1cc(N)nc(SCC(=O)Nc2ccc3c(c2)OCCCO3)n1,IC50,Leucine aminopeptidase,14.4 µM (active)
COc1ccccc1CC(=O)Nc1ccc2c(c1)C(=O)NC2=O,EC50,[5],14.9 µM (inactive)
c1ccc(CSc2nnc(-c3ccco3)o2)cc1,EC50,cells [6],> 350 µM (not active)
same,EC50,cells [7],> 350 µM (not active)
Cc1cccc(-c2noc(CN(C(C)C)S(=O)(=O)c3ccc(F)cc3)n2)c1,EC50,Mucolipin-3,1.77 µM (active)
same,EC50,Ion channel NompC,> 29.9 µM (not active)
CC(C)CSc1nnc(S)s1,IC50,[8],> 100 µM (inactive)
same,IC50,[3],3.32 µM (active)
CC(C)[C@H](NS(=O)(=O)c1ccc2c(c1)OCCO2)C(=O)OCC(=O)Nc1cccc(Cl)c1Cl,EC50,Mucolipin-3,3.69 µM (active)
same,EC50,Ion channel NompC,> 29.9 µM (not active)
Nc1c(C(=O)NCc2ccco2)sc2nc3c(cc12)C(=O)CCC3,IC50,[9],> 64 µM (inactive)
same,IC50,Estrogen receptor beta,6.25 µM (not active)
same,IC50,[10],3.38 µM (active)
CCCN(CCC)S(=O)(=O)c1ccc(C(=O)N2CCCc3ccccc32)cc1,EC50,Mucolipin-3,1.33 µM (active)
same,EC50,Ion channel NompC,> 29.9 µM (not active)
O=C1C2C3C=CC(C3)C2C(=O)N1CCCCN1C(=O)C2C3C=CC(C3)C2C1=O (stereo not given),IC50,[9],> 64 µM (inactive)
O=c1c2ccccc2cnn1Cc1nnc(S)n1-c1ccc(Cl)cc1,IC50,[8],> 100 µM (inactive)
same,IC50,[3],5.01 µM (active)
CCCCNC(=O)CC1N=C2c3ccccc3N=C(SCC(=O)Nc3ccc(OC)cc3)N2C1=O (stereo not given),IC50,cells [11],37 µM (active)
Cc1cccc(Nc2ncnc3[nH]cnc23)c1,IC50,Leucine aminopeptidase,71.4 µM (active)
same,AC50,[12],75.3 µM (active)
CC(C)CC1NC(=O)N(Cc2cc(=O)n3ccsc3n2)C1=O (stereo not given),EC50,cells [6],> 350 µM (not active)
same,EC50,cells [7],> 350 µM (not active)
NC(=O)c1cc(-c2ccccc2)sc1NC(=O)Cc1ccc(S(=O)(=O)N2CCOCC2)s1,IC50,[1],> 5.47 µM (active)
same,IC50,[2],> 111 µM (not active)
Nc1ccc(Oc2ccc3nc(-c4ccccc4)c(-c4ccccc4)nc3c2)cc1,EC50,[5],1.91 µM (active)
Cc1[nH]c2ccccc2c1/C=N/Nc1ccc([N+](=O)[O-])cc1,IC50,cells [11],27 µM (active)
same,IC50,[10],< 0.4 µM (active)
Cc1nc(-c2ccccc2)sc1-c1n[nH]c(=S)n1C,IC50,[8],> 100 µM (inactive)
same,IC50,[3],4.9 µM (active)
CN(C)c1ccc(/C=C(\C#N)C(=O)NCc2ccco2)cc1,EC50,[13],> 300 µM (not active)
same,EC50,[14],23.7 µM (active)
same,IC50,[1],15 µM (not active)
same,IC50,[2],32 µM (not active)
CC(=O)N1CCN(C2=NC(=O)/C(=C/c3ccc(OS(=O)(=O)c4ccccc4)cc3)S2)CC1,IC50,cells [11],37.9 µM (active)
